In patent US6472391B2, “Nitrogen-containing heterocyclic compounds” (Millennium Pharmaceuticals, Inc., priority 1996, dated 2002) one finds melting point data, which are given here for 38 molecules.

A word on the melting point: it is the temperature, or range, at which the solid turns liquid.

In turn, `O=C(Nc1ccc(Oc2ccccc2)cc1)N1CCN(c2ncnc3cc4ccccc4cc23)CC1` [Compound 363, 4-(4-Benzo[g]quinazolinyl)-N-(4-phenoxyphenyl)-1-piperazinecarboxamide] came in with a melting point of 105 to 108 °C.
The result for `CCOc1cc2ncnc(N3CCN(C(=S)NCc4ccccc4)CC3)c2cc1OCC` [Compound 353, N-Benzyl-4-(6,7-diethoxy-4-quinazolinyl)-1-piperazinethiocarboxamide] reads 134 to 136 °C; that for `COc1cc2ncnc(N3CCN(C(=S)NCc4ccccc4)CC3)c2cc1OC` [Compound 125, N-Benzyl-4-(6,7-dimethoxy-4-quinazolinyl)-1-piperazinethiocarboxamide], 187 to 189 °C.
Regarding `N#Cc1ccc(NC(=O)N2CCN(c3ncnc4cc5c(cc34)OCCO5)CC2)cc1` [Compound 373, N-(4-Cyanophenyl)-4-(6,7-ethylenedioxy-4-quinazolinyl)-1-piperazinecarboxamide], the melting point was 246 to 247 °C.
As to `CCOc1cc2ncnc(N3CCN(C(=O)Nc4ccc(C#N)cc4)CC3)c2cc1OCC` [Compound 352, N-(4-Cyanophenyl)-4-(6,7-diethoxy-4-quinazolinyl)-1-piperazinecarboxamide], the melting point is 186 to 187 °C.
The result for `COc1cc2ncnc(N3CCN(C(=O)Nc4ccc(Cl)cc4C(F)(F)F)CC3)c2cc1OC` [Compound 48, N-[4-Chloro-2-(trifluoromethyl)phenyl]-4-(6,7-dimethoxy-4-quinazolinyl)-1-piperazinecarboxamide] reads 189 to 190 °C; that for `Cn1c(=O)n(C)c2cc3c(N4CCN(C(=O)Nc5ccc(Oc6ccccc6)cc5)CC4)ncnc3cc21` [Compound 121, 4-(1,3-Dihydro-1,3-dimethyl-2-oxo-2H-imidazo[4,5-g]quinazolin-8-yl)-N-(4-phenoxyphenyl)-1-piperazinecarboxamide], 250 to 255 °C; that for `COc1cc2ncnc(N3CCN(C(=O)Nc4cccc(C(C)=O)c4)CC3)c2cc1OC` [Compound 86, N-(3-Acetylphenyl)-4-(6,7-dimethoxy-4-quinazolinyl)-1-piperazinecarboxamide], 241 to 245 °C.
Then `COc1cc2ncnc(N3CCN(C(=S)NCc4ccc(C(C)(C)C)cc4)CC3)c2cc1OC` [Compound 157, N-(4-tert-Butylbenzyl)-4-(6,7-dimethoxy-4-quinazolinyl)-1-piperazinethiocarboxamide], with 104 to 105 °C; and `COc1cc2ncnc(N3CCN(C(=O)N(C)c4ccccc4)CC3)c2cc1OC` [Compound 137, 4-(6,7-Dimethoxy-4-quinazolinyl)-N-methyl-N-phenyl-1-piperazinecarboxamide], with 187 to 188 °C.
The result for `COc1cc2ncnc(N3CCN(C(=S)NC(c4ccccc4)c4ccccc4)CC3)c2cc1OC` [Compound 133, 4-(6,7-Dimethoxy-4-quinazolinyl)-N-diphenylmethyl-1-piperazinethiocarboxamide] reads 128 to 129 °C; that for `COc1cc2c(N3CCN(C(=O)Nc4ccc([N+](=O)[O-])cc4)CC3)ncnc2c(OC)c1OC` [Compound 107, N-(4-Nitrophenyl)-4-(6,7,8-trimethoxy-4-quinazolinyl)-1-piperazinecarboxamide], 197 to 199 °C.
Turning to `S=C(NCc1ccccc1)N1CCN(c2ccnc3ccccc23)CC1` [Compound 395, N-Benzyl-4-(4-quinolyl)-1-piperazinethiocarboxamide], the melting point fell in the range of 75 to 79 °C.
Consider `Cc1ccc2c(N3CCN(C(=S)NCc4ccccc4)CC3)ncnc2c1` [Compound 314, N-Benzyl-4-(7-methyl-4-quinazolinyl)-1-piperazinethiocarboxamide], for which the melting point lay within 177 to 178 °C.
`CCOc1ccc(CNC(=O)N2CCN(c3ncnc4cc(OC)c(OC)cc34)CC2)cc1` [Compound 200, 4-(6,7-Dimethoxy-4-quinazolinyl)-N-(4-ethoxybenzyl)-1-piperazinecarboxamide] registered a melting point of 176 to 177 °C.
In turn, `CC(C)c1ccc(NC(=O)N2CCN(c3ncnc4ccc(F)cc34)CC2)cc1` [Compound 296, 4-(6-Fluoro-4-quinazolinyl)-N-(4-isopropylphenyl)-1-piperazinecarboxamide] had a melting point of 139 to 140 °C.
The result for `CCCCOC(=O)c1ccc(NC(=O)N2CCN(c3ncnc4cc(OC)c(OC)cc34)CC2)cc1` [Compound 90, N-(4-Butoxycarbonylphenyl)-4-(6,7-dimethoxy-4-quinazolinyl)-1-piperazinecarboxamide] reads 226 to 227 °C; that for `C=Cc1ccc(NC(=S)N2CCN(c3ncnc4cc(OC)c(OC)cc34)CC2)cc1` [Compound 24, 4-(6,7-Dimethoxy-4-quinazolinyl)-N-(4-vinylphenyl)-1-piperazinethiocarboxamide], 110 to 111 °C.
The result for `COc1cc2ncnc(N3CCN(C(=O)Nc4ccc(F)c([N+](=O)[O-])c4)CC3)c2cc1OC` [Compound 81, 4-(6,7-Dimethoxy-4-quinazolinyl)-N-(4-fluoro-3-nitrophenyl)-1-piperazinecarboxamide] reads 243 to 245 °C; that for `COc1cc2ncnc(N3CCN(C(=O)NCc4ccsc4)CC3)c2cc1OC` [Compound 258, 4-(6,7-Dimethoxy-4-quinazolinyl)-N-(3-thienylmethyl)-1-piperazinecarboxamide], 178 to 179 °C; that for `COc1cc2ncnc(N3CCN(C(=O)NCCc4ccc(Br)cc4)CC3)c2cc1OC` [Compound 120, N-[2-(4-Bromophenyl)ethyl]-4-(6,7-dimethoxy-4-quinazolinyl)-1-piperazinecarboxamide], 174 to 175 °C.
The result for `O=C(Nc1ccc(Oc2ccccc2)cc1)N1CCN(c2ncnc3ccccc23)CC1` [Compound 104, N-(4-Phenoxyphenyl)-4-(4-quinazolinyl)-1-piperazinecarboxamide] reads 74 to 75 °C.
`Fc1ccc2ncnc(N3CCN(C(=S)NCc4cccnc4)CC3)c2c1` [Compound 299, 4-(6-Fluoro-4-quinazolinyl)-N-(3-picolyl)-1-piperazinethiocarboxamide] had a melting point of 170 to 172 °C.
In the case of `CC(=O)c1ccc(NC(=O)N2CCN(c3ncnc4ccc(F)cc34)CC2)cc1` [Compound 298, N-(4-Acetylphenyl)-4-(6-fluoro-4-quinazolinyl)-1-piperazinecarboxamide], the melting point was in the range of 184 to 185 °C.
The result for `COc1cc2ncnc(N3CCN(C(=S)NC(=O)c4ccc(Cl)cc4)CC3)c2cc1OC` [Compound 179, N-(4-Chlorobenzoyl)-4-(6,7-dimethoxy-4-quinazolinyl)-1-piperazinethiocarboxamide] reads 166 to 168 °C; that for `COc1cc2ncnc(N3CCN(C(=O)NC4CCCCC4)CC3)c2cc1OC` [Compound 13, N-Cyclohexyl-4-(6,7-dimethoxy-4-quinazolinyl)-1-piperazinecarboxamide], 208 to 210 °C; that for `COc1cc2ncnc(N3CCN(C(=S)NCc4ccc(C)c(Cl)c4)CC3)c2cc1OC` [Compound 190, N-(3-Chloro-4-methylbenzyl)-4-(6,7-dimethoxy-4-quinazolinyl)-1-piperazinethiocarboxamide], 108 to 110 °C.
Then `S=C(NCc1ccccc1)N1CCN(c2ncnc3cc4c(cc23)OCCO4)CC1` [Compound 374, N-Benzyl-4-(6,7-ethylenedioxy-4-quinazolinyl)-1-piperazinethiocarboxamide], with 103 to 105 °C; and `COc1cc2ncnc(N3CCN(C(=O)Nc4ccc(Cl)c(C(F)(F)F)c4)CC3)c2cc1OC` [Compound 49, N-[4-Chloro-3-(trifluoromethyl)phenyl]-4-(6,7-dimethoxy-4-quinazolinyl)-1-piperazinecarboxamide], with 237 to 238 °C; and `COc1cc2ncnc(N3CCN(C(=O)Nc4cc(F)ccc4F)CC3)c2cc1OC` [Compound 51, N-(2,5-Difluorophenyl)-4-(6,7-dimethoxy-4-quinazolinyl)-1-piperazinecarboxamide], with 187 to 189 °C.
Then `COc1cc2ncnc(N3CCN(C(=S)NCc4ccncc4)CC3)c2cc1OC` [Compound 270, 4-(6,7-Dimethoxy-4-quinazolinyl)-N-(4-picolyl)-1-piperazinethiocarboxamide], with 236 to 239 °C.
In turn, `COc1cc2ncnc(N3CCN(C(=S)Nc4ccc(C(C)=O)cc4)CC3)c2cc1OC` [Compound 242, N-(4-Acetylphenyl)-4-(6,7-dimethoxy-4-quinazolinyl)-1-piperazinethiocarboxamide] displayed a melting point of 256 to 257 °C.
The result for `COc1cc2ncnc(N3CCN(C(=O)Nc4cccnc4)CC3)c2cc1OC` [Compound 265, 4-(6,7-Dimethoxy-4-quinazolinyl)-N-(3-pyridyl)-1-piperazinecarboxamide] reads 208 to 209 °C; that for `O=C(Nc1ccc([N+](=O)[O-])cc1)N1CCN(c2ncnc3ccccc23)CC1` [Compound 103, N-(4-Nitrophenyl)-4-(4-quinazolinyl)-1-piperazinecarboxamide], 155 to 158 °C; that for `COc1cc2ncnc(N3CCN(C(=S)NCc4ccccc4)CC3)c2cc1OS(C)(=O)=O` [Compound 351, N-Benzyl-4-(6-mesyloxy-7-methoxy-4-quinazolinyl)-1-piperazinethiocarboxamide], 76 to 80 °C.
Then `COc1cc2ncnc(N3CCN(C(=S)NCc4ccc(Cl)cc4)CC3)c2cc1OC` [Compound 42, N-(4-Chlorobenzyl)-4-(6,7-dimethoxy-4-quinazolinyl)-1-piperazinethiocarboxamide], with 218 to 220 °C; and `CCOC(=O)c1ccc(NC(=O)N2CCN(c3ncnc4cc(OC)c(OC)cc34)CC2)cc1` [Compound 89, 4-(6,7-dimethoxy-4-quinazolinyl)-N-(4-ethoxycarbonylphenyl)-1-piperazinecarboxamide], with 242 to 246 °C; and `CCSc1ccc(NC(=O)N2CCN(c3ncnc4cc(OC)c(OC)cc34)CC2)cc1` [Compound 219, 4-(6,7-Dimethoxy-4-quinazolinyl)-N-(4-ethylthiophenyl)-1-piperazinecarboxamide], with 208 to 209 °C.
